Square brackets hold non-standard residues; d marks the D form. Peptide text beside a SMILES is read from it. Orn = NCCC[C@H](N)C(=O)O; βAla = NCCC(=O)O
Test system: MYC promoter and putative enhancer regions
Assay: CUT&RUN qPCR, coactivator complex recruitment (PolII, BRD4, SMARCA4)
Type: cell-based, human
Text: We next examined the molecular mechanism of MYC down-regulation by VGN50. We first utilized Cleavage under targets & release using nuclease (CUT&RUN)-sequencing to examine histone modifications that are known to be associated with enhancers in order to map putative MYC enhancer regions in PEL cells (Fig. 5a). Genome-wide CUT&RUN studies identified putative enhancer and promoter regulatory regions that are marked by H3K27Ac, H3K4me1, POLR2A (RNAPII), BRD4, and SMARCC1, a component of the SWI/SNF complex (Fig. 1b and 5a). The identified putative MYC enhancers were also in good agreement with previous ChIP Hi-C[53] and ChIP-seq data sets[54]. Specific primer pairs were then designed to amplify the respective enhancer regions and to examine regulation of coactivator complex recruitment by VGN50.
Fig. 5 A molecular mechanism of VGN50-mediated MYC-down-regulation. a Cleavage under targets & release using nuclease (CUT&RUN). CUT&RUN was performed with BCBL-1 and BC-1 with the indicated antibodies. Enrichment of active histone modifications, and occupancies of RNAPII and SWI/SNF components at the MYC genomic region are shown as peaks. One of the biological duplicate samples for the BCBL-1 cell line is presented. […] The MYC promoter, enhancer, and negative control regions used for qPCR analyses are indicated with shading. The positions of the MYC coding region, CASC11 coding region, and long non-coding RNA, PVT1, MIR1208 are shown in the panel. b VGN50 inhibits coactivator complex recruitment and c reduces H3K27Ac modification. qPCR is used to examine enrichment of DNA fragments in the presence of VGN50 or mutant peptide (24 μM). Peptide was applied 1 h prior to processing samples for CUT&RUN to replicate SLAM-seq experimental conditions. Non-specific IgG control was also included and enrichment with IgG control at each genomic region was set as 1 for b, and spiked-in luciferase plasmid DNA was used for additional internal control for c. d Formation of a larger protein complex with VGN50. Sucrose gradient sedimentation was used to monitor changes in protein complex formation in the presence of VGN50. The experiment flow chart is shown at the top of this panel. Fractions were collected from top (#1) to bottom (#23/24). Sample #24 without peptide is a smaller fraction of residual samples. Immunoblotting was performed on the odd number samples and the remaining fraction (#24 for no peptide sample) and probed with Flag-tagged SWI/SNF components (SMARCA4, SMARCC2, and SMARCB1). The position of each protein component based on molecular size is indicated. e KSHV K-Rta colocalizes with SWI/SNF components in reactivating BCBL-1 cells. TREx-BCBL-1 cells were triggered for reactivation by treatment with Dox and TPA for 28 h and stained with the indicated antibodies. Images were acquired with Keyence fluorescence microscopy. f A model for VGN50 molecular action. A model depicting the putative molecular action of VGN50 is presented. Coactivator complexes are dynamically assembled on enhancer and promoter regions via transcription factor binding. VGN50, an IDR fragment derived from an exceptionally potent viral transactivator, flexibly interacts with components of coactivators and traps them, thus reduces the available resources for cellular enhancers to activate MYC promoters.
CUT&RUN[72] was performed essentially by following the online protocol developed by Dr. Henikoff’s lab with a few modifications to fit our needs. Cells were washed with PBS and wash buffer [20 mM HEPES-KOH pH 7.5, 150 mM NaCl, 0.5 mM Spermidine (Sigma, S2626), and proteinase inhibitor (Roche)]. After removing the wash buffer, cells were captured on magnetic concanavalin A (ConA) beads (Polysciences, PA, USA) in the presence of CaCl2. […]

[1] = MYC region E1, peptide 24 μM 1 h, IgG set as 1, replicate 1
[2] = MYC region E1, peptide 24 μM 1 h, IgG set as 1, replicate 2
[3] = MYC region E1, peptide 24 μM 1 h, IgG set as 1, replicate 3
[4] = MYC region E2, peptide 24 μM 1 h, IgG set as 1, replicate 1
[5] = MYC region E2, peptide 24 μM 1 h, IgG set as 1, replicate 2
[6] = MYC region E2, peptide 24 μM 1 h, IgG set as 1, replicate 3
[7] = MYC region E3, peptide 24 μM 1 h, IgG set as 1, replicate 1
[8] = MYC region E3, peptide 24 μM 1 h, IgG set as 1, replicate 2
[9] = MYC region E3, peptide 24 μM 1 h, IgG set as 1, replicate 3
[10] = MYC region P1, peptide 24 μM 1 h, IgG set as 1, replicate 1
[11] = MYC region P1, peptide 24 μM 1 h, IgG set as 1, replicate 2
[12] = MYC region P1, peptide 24 μM 1 h, IgG set as 1, replicate 3
[13] = Myc Control region, peptide 24 μM 1 h, IgG set as 1, replicate 1
[14] = Myc Control region, peptide 24 μM 1 h, IgG set as 1, replicate 2
[15] = Myc Control region, peptide 24 μM 1 h, IgG set as 1, replicate 3

## CC(C)C[C@H](NC(=O)CCNC(=O)[C@H](CCCNC(=N)N)NC(=O)[C@H](CCCNC(=N)N)NC(=O)[C@H](CCCNC(=N)N)NC(=O)[C@H](CCCN)NC(=O)[C@H](CCCNC(=N)N)NC(=O)[C@H](CCCNC(=N)N)NC(=O)[C@H](CCCCN)NC(=O)[C@H](CCCCN)NC(=O)[C@H](N)CCCNC(=N)N)C(=O)N[C@@H](CO)C(=O)N[C@@H](CO)C(=O)N[C@@H](C)C(=O)N[C@@H](C)C(=O)N[C@@H](C)C(=O)NCC(=O)N[C@@H](CC(C)C)C(=O)N[C@@H](Cc1ccc(O)cc1)C(=O)N[C@@H](CCC(N)=O)C(=O)N[C@@H](CC(C)C)C(=O)N[C@@H](CC(=O)O)C(=O)N[C@H](C(=O)O)[C@@H](C)O [Mt-P] (H-[dR]KKRR[Orn]RRR[βAla]LSSAAAGLYQLDT-OH; N-terminus and C-terminus assumed)
[1]
  BRD4 enrichment, CUT&RUN qPCR: 3.57
  PolII enrichment, CUT&RUN qPCR: 2.89
  SMARCA4 enrichment, CUT&RUN qPCR: 1.44
[2]
  BRD4 enrichment, CUT&RUN qPCR: 3.47
  PolII enrichment, CUT&RUN qPCR: 2.18
  SMARCA4 enrichment, CUT&RUN qPCR: 1.11
[3]
  BRD4 enrichment, CUT&RUN qPCR: 3.30
  PolII enrichment, CUT&RUN qPCR: 2.41
  SMARCA4 enrichment, CUT&RUN qPCR: 1.32
[4]
  BRD4 enrichment, CUT&RUN qPCR: 6.92
  PolII enrichment, CUT&RUN qPCR: 9.68
  SMARCA4 enrichment, CUT&RUN qPCR: 2.57
[5]
  BRD4 enrichment, CUT&RUN qPCR: 6.75
  PolII enrichment, CUT&RUN qPCR: 10.09
  SMARCA4 enrichment, CUT&RUN qPCR: 2.47
[6]
  BRD4 enrichment, CUT&RUN qPCR: 7.28
  PolII enrichment, CUT&RUN qPCR: 9.27
  SMARCA4 enrichment, CUT&RUN qPCR: 2.05
[7]
  BRD4 enrichment, CUT&RUN qPCR: 7.28
  PolII enrichment, CUT&RUN qPCR: 10.61
  SMARCA4 enrichment, CUT&RUN qPCR: 2.01
[8]
  BRD4 enrichment, CUT&RUN qPCR: 6.68
  PolII enrichment, CUT&RUN qPCR: 9.91
  SMARCA4 enrichment, CUT&RUN qPCR: 2.39
[9]
  BRD4 enrichment, CUT&RUN qPCR: 7.58
  PolII enrichment, CUT&RUN qPCR: 10.57
  SMARCA4 enrichment, CUT&RUN qPCR: 1.42
[10]
  BRD4 enrichment, CUT&RUN qPCR: 8.00
  PolII enrichment, CUT&RUN qPCR: 18.06
  SMARCA4 enrichment, CUT&RUN qPCR: 2.48
[11]
  BRD4 enrichment, CUT&RUN qPCR: 8.20
  PolII enrichment, CUT&RUN qPCR: 18.31
  SMARCA4 enrichment, CUT&RUN qPCR: 2.51
[12]
  BRD4 enrichment, CUT&RUN qPCR: 7.99
  PolII enrichment, CUT&RUN qPCR: 17.86
  SMARCA4 enrichment, CUT&RUN qPCR: 2.36
[13]
  BRD4 enrichment, CUT&RUN qPCR: 2.07
  PolII enrichment, CUT&RUN qPCR: 2.07
  SMARCA4 enrichment, CUT&RUN qPCR: 1.30
[14]
  BRD4 enrichment, CUT&RUN qPCR: 1.88
  PolII enrichment, CUT&RUN qPCR: 1.88
  SMARCA4 enrichment, CUT&RUN qPCR: 1.17
[15]
  BRD4 enrichment, CUT&RUN qPCR: 1.71
  PolII enrichment, CUT&RUN qPCR: 1.71
  SMARCA4 enrichment, CUT&RUN qPCR: 1.15

— paper PMC8639922, “KSHV transactivator-derived small peptide traps coactivators to attenuate MYC and inhibits leukemia and lymphoma cell growth” (Communications Biology, 2021)
